{"source": "patent US20140088006A1", "about": "“Stem Cell Mobilization and Tissue Repair and Regeneration” (Wellstat Therapeutics Corporation, priority 2011, published 2014)", "key": {"[1]": {"test_system": "hematopoietic stem cells (HSC) and their hematopoietic progenitors (HPC)", "experiment": "CFU-GM / CFU-GEMM colony assay of peripheral blood mononuclear cells after single subcutaneous injection", "format": "in vivo, C57Bl6 mice", "protocol": "C57Bl6 male mice, from 8 weeks to 4 month of age, from Harlan were used. Mice received subcutaneous injections of saline, Compound X (50 μg/kg) or Compound X (250 μg/kg). After 1 and 4 hours, mice were anesthetized and blood was collected through the orbital sinus with heparinized capillary tubes. 20 μl of blood was removed from each tube for WBC counts;\nRemaining blood from each group was pooled and mononuclear cells were isolated by density gradient separation. To enumerate HSC and HPC in peripheral blood cells were washed, counted plated in semi-solid Methylcellulose MC3434 (Stem cell technology) at 100,000 per dish (5 dishes/group) and placed in CO2 incubator at 37° C. Colony-forming unit-granulocyte erythroid macrophage megakaryocyte (CFU-GEMM) and Colony-forming unit-granulocyte macrophage (CFU-GM) were detected under inverted microscope 7 and 10 days after.\nIn this experiment, C57Bl6 mice received subcutaneous injections of PBS, Compound X (250 μg/kg) or AMD3100 (5 mg/kg). After 1 hr blood was collected through the orbital sinus with heparinized capillary tubes. Blood from each group was pooled, counted and mononuclear cells were isolated by density gradient separation. Cells were washed, counted and plated at 100,000 per dish (5 dishes/group) for CFU-GEMM and CFU-GM colonies. CFU-GEMM colonies were scored on day 14, while CFU-GM colonies on day 7 after plating in MC3434 (Stem cell Technology)."}, "peripheral blood cells": {"test_system": "peripheral blood cells", "experiment": "FACS phenotype of peripheral blood cells after single subcutaneous injection", "format": "in vivo, C57Bl6 mice", "settings": "for Phenotype Lin−/Sca-1+ / Phenotype Lin−/Sca-1−: mononuclear cells; for Phenotype CD19+ / Phenotype Gr-1 High / Phenotype Gr-1 Low: individual mice", "protocol": "C57Bl6 male mice, from 8 weeks to 4 month of age, from Harlan were used. […] 20 μl of blood was removed from each tube for WBC counts;\n200 μl of blood was used for FACS analysis of cells phenotypes: briefly 50 μl of blood was transferred to a 15 ml polypropylene tube containing 1 ml ACK lysis buffer and the tubes left at room temperature for 6 minutes. 50 μl of a 1:50 dilution of Fc block (Pharmingen 01241A) along with 2 ul of anti-CD19FITC (Pharmingen 09654A) and 2 μl of anti-Gr-1PE (Pharmingen 01215A) was added and the tubes left at room temperature for 30 minutes protected from light. The cells were washed with 3 ml FACS buffer, resuspended in 300 μl FACS buffer and kept on ice, protected from light until acquired on the FACSCalibur.\nFor flow cytometry analysis the blood was stained with antibodies and a phenotype determined by FACS as described before. In addition to the whole blood FACS phenotyping, Ficolled blood was also stained to monitor the Lin−/Sca+ phenotype. The cells were washed with 3 ml FACS buffer, resuspended in 300 μl FACS buffer and kept on ice, protected from light until acquired on the FACSCalibur"}, "HSC and HPC": {"test_system": "HSC and HPC", "experiment": "CFU-GM / CFU-GEMM colony assay after 4 daily injections of G-CSF and Compound X", "format": "in vivo, mice", "settings": "for CFU-GEMM numbers, MEAN / CFU-GM numbers, MEAN / CFU-GEMM numbers / CFU-GM numbers: 5 μg/mouse each agent s.c. daily for 4 days; for CFU-GEMM numbers / CFU-GM numbers: individual dishes; for Fold increase in number of CFU-GM / Fold increase in number of CFU-Mix (CFU-GEMM): multiple injections, 5 μg/mouse each agent", "protocol": "Compound X and Neupogen (rG-CSF Amgen, lot# P043601) were diluted in PBS. Mice received subcutaneous injections of PBS, Compound X (5 μg/mouse), G-CSF (5 μg/mouse) or Compound X (5 μg/mouse)+G-CSF (5 μg/mouse) for four consecutive days. […] Mononuclear cells were isolated by density gradient separation from pooled blood. […] Blood was also collected and processed on day 8 for colony assay. Results are shown in Tables 10, 11, and 12 and in FIG. 5."}, "[2]": {"experiment": "Blood glucose before and 7 weeks after treatment in wound healing study", "format": "in vivo, db/db mice", "settings": "4 days i.v. treatment course; 7 weeks after the treatment", "protocol": "Note, that mice were taken for the wound healing experiment when their glucose level was high; baseline glucose was measured by glucometer from tail bleed one day before the wound healing experiment next glucose measurement was taken at the end of the study, 7 weeks after the treatment with intravenous injections of Compound X or Saline."}, "[3]": {"test_system": "full-thickness cutaneous wounds", "experiment": "Excisional wound healing model in db/db mice", "format": "in vivo", "settings": "i.v. 5 mg/kg daily for 4 days, Day 4"}, "[4]": {"settings": "s.c. 250 μg/kg, 1 hour, individual dishes"}}, "note": "Values joined by “and” are separate entries in the source; they are usually repeats but may differ in a detail not shown here. Equal values may be shown once. No end group written: not given here.", "data": [{"sequence": "FPHFDLSHGSAQV [Compound X, tridecapeptide that acts on stem cells]", "values": [{"measurement": "increase in number of HSC HPC in blood", "setting": "[1]; 1 hr after s.c. injection", "result": "up to 5 times"}, {"measurement": "doses with mobilizing activity", "setting": "[1]; doses tested from 5 μg/kg up to 5 mg", "result": "0.125 to 0.5", "unit": "mg/kg"}, {"measurement": "CFU-GEMM, MEAN", "setting": "[1]; s.c. 250 μg/kg, 1 hour", "result": "3.8 per 100,000 cells"}, {"measurement": "CFU-GM (day 7), MEAN", "setting": "[1]; s.c. 250 μg/kg, 1 hour", "result": "4 per 100,000 cells"}, {"measurement": "CFU-GEMM", "setting": "[1]; [4]", "result": "6 per 100,000 cells and 3 per 100,000 cells (3×) and 4 per 100,000 cells"}, {"measurement": "CFU-GM (day 7)", "setting": "[1]; [4]", "result": "3 per 100,000 cells (2×) and 6 per 100,000 cells and 4 per 100,000 cells (2×)"}, {"measurement": "number of white blood cells and CFU-GM in peripheral blood", "setting": "[1]; s.c. 250 μg/kg, 1 hr", "result": "did not change"}, {"measurement": "increase of CFU-GEMM number in peripheral blood", "setting": "[1]; s.c. 250 μg/kg, 1 hr, vs PBS", "result": 3.8, "unit": "times"}, {"measurement": "CFU-GM + CFU-GEMM, MEAN", "setting": "[1]; single s.c. 50 μg/kg, 1 hour", "result": 5, "unit": "per 100000 cells"}, {"measurement": "CFU-GM + CFU-GEMM", "setting": "[1]; single s.c. 50 μg/kg, 1 hour, individual dishes", "result": "5 per 100000 cells and 6 per 100000 cells and 4 per 100000 cells and 3 per 100000 cells and 7 per 100000 cells"}, {"measurement": "CFU-GM + CFU-GEMM, MEAN", "setting": "[1]; single s.c. 50 μg/kg, 4 hour", "result": 0.6, "unit": "per 100000 cells"}, {"measurement": "CFU-GM + CFU-GEMM", "setting": "[1]; single s.c. 50 μg/kg, 4 hour, individual dishes", "result": "1 per 100000 cells (3×) and 0 per 100000 cells (2×)"}, {"measurement": "CFU-GM + CFU-GEMM, MEAN", "setting": "[1]; single s.c. 250 μg/kg, 1 hour", "result": 25, "unit": "per 100000 cells"}, {"measurement": "CFU-GM + CFU-GEMM", "setting": "[1]; single s.c. 250 μg/kg, 1 hour, individual dishes", "result": "24 per 100000 cells (2×) and 20 per 100000 cells and 28 per 100000 cells and 29 per 100000 cells"}, {"measurement": "CFU-GM + CFU-GEMM, MEAN", "setting": "[1]; single s.c. 250 μg/kg, 4 hour", "result": 1.4, "unit": "per 100000 cells"}, {"measurement": "CFU-GM + CFU-GEMM", "setting": "[1]; single s.c. 250 μg/kg, 4 hour, individual dishes", "result": "1 per 100000 cells (4×) and 3 per 100000 cells"}, {"measurement": "stem cell number (HSC) in circulation", "setting": "[1]; within 1 hr after injection, from approximately 100 HSC under homeostatic conditions", "result": "300-400 HSC"}, {"measurement": "Phenotype Lin−/Sca-1+", "setting": "peripheral blood cells; 50 μg/kg, 1-hour", "result": 0.4, "unit": "%"}, {"measurement": "Phenotype Lin−/Sca-1−", "setting": "peripheral blood cells; 50 μg/kg, 1-hour", "result": 0.8, "unit": "%"}, {"measurement": "Phenotype Lin−/Sca-1+", "setting": "peripheral blood cells; 50 μg/kg, 30-min", "result": 0.5, "unit": "%"}, {"measurement": "Phenotype Lin−/Sca-1−", "setting": "peripheral blood cells; 50 μg/kg, 30-min", "result": 1.0, "unit": "%"}, {"measurement": "Phenotype Lin−/Sca-1+", "setting": "peripheral blood cells; 250 μg/kg, 1-hour", "result": 0.8, "unit": "%"}, {"measurement": "Phenotype Lin−/Sca-1−", "setting": "peripheral blood cells; 250 μg/kg, 1-hour", "result": 1.1, "unit": "%"}, {"measurement": "Phenotype Lin−/Sca-1+", "setting": "peripheral blood cells; 250 μg/kg, 30-min", "result": 0.6, "unit": "%"}, {"measurement": "Phenotype Lin−/Sca-1−", "setting": "peripheral blood cells; 250 μg/kg, 30-min", "result": 1.1, "unit": "%"}, {"measurement": "Phenotype CD19+", "setting": "peripheral blood cells; s.c. 50 μg/kg, 1 hr", "result": "38.3% and 41.0% and 29.6%"}, {"measurement": "Phenotype Gr-1 High", "setting": "peripheral blood cells; s.c. 50 μg/kg, 1 hr", "result": "26.0% and 27.7% and 29.4%"}, {"measurement": "Phenotype Gr-1 Low", "setting": "peripheral blood cells; s.c. 50 μg/kg, 1 hr", "result": "3.5% (2×) and 7.0%"}, {"measurement": "Phenotype CD19+", "setting": "peripheral blood cells; s.c. 50 μg/kg, 4 hr", "result": "33.9% and 40.9% and 29.1%"}, {"measurement": "Phenotype Gr-1 High", "setting": "peripheral blood cells; s.c. 50 μg/kg, 4 hr", "result": "25.0% and 16.7% and 29.1%"}, {"measurement": "Phenotype Gr-1 Low", "setting": "peripheral blood cells; s.c. 50 μg/kg, 4 hr", "result": "6.2% and 7.6% and 5.3%"}, {"measurement": "Phenotype CD19+", "setting": "peripheral blood cells; s.c. 250 μg/kg, 1 hr", "result": "14.8% and 4.8% and 14.5%"}, {"measurement": "Phenotype Gr-1 High", "setting": "peripheral blood cells; s.c. 250 μg/kg, 1 hr", "result": "55.2% and 18.7% and 6.8%"}, {"measurement": "Phenotype Gr-1 Low", "setting": "peripheral blood cells; s.c. 250 μg/kg, 1 hr", "result": "3.5% and 2.1% and 2.4%"}, {"measurement": "Phenotype CD19+", "setting": "peripheral blood cells; s.c. 250 μg/kg, 4 hr", "result": "46.7% and 48.5% and 46.6%"}, {"measurement": "Phenotype Gr-1 High", "setting": "peripheral blood cells; s.c. 250 μg/kg, 4 hr", "result": "16.1% and 12.9% and 11.7%"}, {"measurement": "Phenotype Gr-1 Low", "setting": "peripheral blood cells; s.c. 250 μg/kg, 4 hr", "result": "5.1% and 5.5% and 6.6%"}, {"measurement": "mobilization of lineage negative progenitors", "setting": "peripheral blood cells; s.c. 50 or 250 μg/kg, 30 min and 1 hr", "result": "did not have such an effect"}, {"measurement": "CFU-GEMM numbers, MEAN", "setting": "HSC and HPC; Day 4", "result": "2.4 per 100000 mononuclear cells"}, {"measurement": "CFU-GM numbers, MEAN", "setting": "HSC and HPC; Day 4", "result": "9.6 per 100000 mononuclear cells"}, {"measurement": "CFU-GEMM numbers", "setting": "HSC and HPC; Day 4", "result": "3 per 100000 mononuclear cells (2×) and 0 per 100000 mononuclear cells and 4 per 100000 mononuclear cells and 2 per 100000 mononuclear cells"}, {"measurement": "CFU-GM numbers", "setting": "HSC and HPC; Day 4", "result": "7 per 100000 mononuclear cells and 6 per 100000 mononuclear cells and 13 per 100000 mononuclear cells and 11 per 100000 mononuclear cells (2×)"}, {"measurement": "CFU-GEMM numbers, MEAN", "setting": "HSC and HPC; Day 8", "result": "0.6 per 100000 mononuclear cells"}, {"measurement": "CFU-GM numbers, MEAN", "setting": "HSC and HPC; Day 8", "result": "0.6 per 100000 mononuclear cells"}, {"measurement": "CFU-GEMM numbers", "setting": "HSC and HPC; Day 8", "result": "1 per 100000 mononuclear cells (3×) and 0 per 100000 mononuclear cells (2×)"}, {"measurement": "CFU-GM numbers", "setting": "HSC and HPC; Day 8", "result": "1 per 100000 mononuclear cells (3×) and 0 per 100000 mononuclear cells (2×)"}, {"measurement": "number of CFU-GEMM or CFU-GM", "setting": "HSC and HPC; 5 μg/mouse s.c. daily for 4 days, day 8", "result": "no difference found"}, {"measurement": "Fold increase in number of CFU-GM", "setting": "HSC and HPC; Day 4", "result": 1.9, "unit": "Fold"}, {"measurement": "Fold increase in number of CFU-Mix (CFU-GEMM)", "setting": "HSC and HPC; Day 4, 1 hr after the last injection", "result": 1.7, "unit": "Fold"}, {"measurement": "Fold increase in number of CFU-GM", "setting": "HSC and HPC; Day 8", "result": 0, "unit": "Fold"}, {"measurement": "Fold increase in number of CFU-Mix (CFU-GEMM)", "setting": "HSC and HPC; Day 8", "result": 0, "unit": "Fold"}, {"measurement": "glucose level in blood", "setting": "[2]", "result": "decreased glucose level"}, {"measurement": "Wound healing rate, Average", "setting": "[3]", "result": 5.14, "unit": "%"}, {"measurement": "Wound healing rate", "setting": "[3]; individual mice, 5 mg/kg", "result": "3.89% and 4.69% and 2.42% and 8.09% and 6.62%"}]}]}
